Data reported in article PMC13184988, “Enzymatic Bromination of Native Peptides for Late-Stage Structural Diversification via Suzuki–Miyaura Coupling” (ACS Chemical Biology, 2026).
Where “and” joins values, the source holds several entries; their conditions need not be identical. Identical values can stand only once. *1 amine or outer side, *2 acyl side, *3 side chain or, on linkers, in order; H or OH if unused. Where a SMILES comes first, the peptide text is derived from it. [ ]: non-standard residue; d: D form. X1 = O=C([C@H](Cc1c[nH]c2c(-c3cccc(C(F)(F)F)c3)cccc12)N[*:1])[*:2]; Trp(7-Br) = N[C@@H](Cc1c[nH]c2c(Br)cccc12)C(=O)O

Experiments:
E. coli XL10 [1] = assay: Minimal bactericidal concentration (Petri dish and spot assay); format: cell-based
Experimental: 0.5%. After incubation, the cells were washed 2 × 0.5 mg/mL heparin sulfate in PBS and then washed with 2 × FluoroBrite DMEM. FluoroBrite DMEM (200 µL) was added to each well for imaging. 1 drop of NucRed nuclear counterstain was added to visualize the cell nuclei. The cells were imaged using a Nikon microscope equipped with an Orca-Fire camera. Fiji was used for […]
. Fluorescence images were background corrected and individual nuclei were segmented based on a threshold intensity in the NucRed […]
Mueller-Hinton II cation-adjusted broth (10 mL) was inoculated with E. coli XL10 and incubated overnight with shaking at 37°C. The next day, the overnight culture was diluted to an OD600 of 0.5 […]
OD600 0.5 culture was further diluted 20-fold into fresh Mueller-Hinton II cation-adjusted broth […]
From each triplicate experiment, 100 µL of the 18-hour minimal inhibitory growth culture (see above) was plated on a petri dish containing Mueller-Hinton II cation-adjusted agar. […] The next morning, the bacterial growth on each triplicate plate was assessed. […]
Using a multichannel pipette, 3 μL from each triplicate of the 18-hour minimal inhibitory growth culture (see above) was spotted on a square petri dish containing Mueller-Hinton II cation-adjusted agar. […] The next morning, the bacterial growth on each triplicate plate was assessed. […]

E. coli XL10 [2] = assay: Bacterial minimal inhibitory concentration, 18 h growth inhibition assay; format: cell-based
4V = format: biochemical

Row | Molecule | fold decrease in MBC relative to the parent peptide (RW)3 (E. coli XL10 [1]) | fold decrease in MIC relative to the parent peptide (RW)3 (E. coli XL10 [2]) | Average Percent Conversion (4V) | Percent Br2 Conversion (EIC) (4V) | Percent Br Conversion (EIC) (4V) | Total Percent Conversion (4V) | 4V-catalyzed conversion to the monobrominated product (4V; unmodified bioactive peptides, 1 mM peptide, 10 mM NaBr, 25 μM 4V, 25 mM HEPES pH 7.4, 24 h ambient, n = 3 independent experiments)
1 | N=C(N)NCCC[C@H](NC(=O)[C@H](Cc1c[nH]c2ccccc12)NC(=O)[C@H](CCCNC(=N)N)NC(=O)[C@H](Cc1c[nH]c2ccccc12)NC(=O)[C@@H](N)CCCNC(=N)N)C(=O)N[C@@H](Cc1c[nH]c2c(Br)cccc12)C(N)=O [Br-(RW)3] (H-RWRWR[Trp(7-Br)]-NH2; N-terminus assumed) | approximately 4 fold | approximately 4 fold |  |  |  |  | 
2 | N=C(N)NCCC[C@H](NC(=O)[C@H](Cc1c[nH]c2ccccc12)NC(=O)[C@H](CCCNC(=N)N)NC(=O)[C@H](Cc1c[nH]c2ccccc12)NC(=O)[C@@H](N)CCCNC(=N)N)C(=O)N[C@@H](Cc1c[nH]c2c(-c3cccc(C(F)(F)F)c3)cccc12)C(N)=O [CF3(−RW)3] (H-RWRWR[X1]-NH2; N-terminus assumed) | 4 fold |  |  |  |  |  | 
3 | galanin |  |  | 21.379% | 0% | 21.5543% and 21.2037% | 21.2037% and 21.5543% | 16.8 ± 0.2%
